pIC50: −log10 of the molar value.
Tests used:
[1] = tested on: release of TNF α from LPS treated human whole blood; assay: Inhibitory activity of TNF α release from LPS treated human whole blood (ELISA); assay type: cell-based; conditions: LPS treated human whole blood diluted 4-fold, 24 hr, 37° C., TNF α by ELISA
Description: The inhibitory effect of each compound (compounds of Examples 2, 6, 7, 10, 11, 37, 147, 231 and 245) on the release of TNF α from LPS treated human whole blood [see: Lymphokine Res 8, 141-146 (1989)] was investigated.
Human whole blood was diluted 4-fold with RPMI1640 medium supplemented with 10% FCS. The diluted blood was dispensed to a 96 multi-well plate by 100 μl and equilibrated under the conditions of 37° C., 5% CO2. LPS (2 μg/ml) was prepared with RPMI1640 medium supplemented with 10% FCS and a culture broth prepared by dissolving each compound (dissolved in dimethyl sulfoxide) in the LPS solution was added by 100 μl/well (final concentrated of dimethyl sulfoxide 0.1%), which was followed by incubation for 24 hr (37° C., 5% CO2). After the incubation, the reaction mixture was centrifuged (1,500 rpm, 5 min). The culture supernatant (40 μl/well) was collected, and TNF α amount in the supernatant was quantitatively measured by ELISA. The TNF α release inhibitory effect by each compound was calculated from the proportion of release TNF α amount of the compound addition group relitive to that of the compound non-addition group.

[2] = tested on: release of TNF α from THP-1 cells; assay: Inhibitory activity of TNF α release from THP-1 cells (LPS, ELISA); assay type: cell-based; conditions: Homo sapiens, 3 hr, 37° C., TNF α by ELISA
Description: The inhibitory effect of each compound (compounds of Examples 1, 2, 3, 6, 35, 39 and 44) on the release of TNF α from THP-1 cells which are monocyte cultured cells [see Nature 370, 218-220 (1994)] was investigated.
The THP-1 cells were suspended to a concentration of 1×10 ^6 cells/ml in RPMI1640 medium supplemented with 10% fetal calf serum (FCS) and dispensed by 100 μl. A 2 μg/ml LPS was prepared with RPMI1640 medium supplemented with 10% FCS. Each compound (dissolved in dimethyl sulfoxide) was diluted 500-fold with the LPS solution.
The diluted solutions of these compounds were added to the dispensed cell suspensions by 100 μl and allowed for 3 hr to react under the conditions of 37° C., 5% CO2. After the completion of the reaction, the reaction mixture was centrifuged and the culture supernatant was collected. The TNF α amount was quantitatively measured by ELISA (enzyme-linked immunosorbent assay). The TNF α release inhibitory effect by each compound was calculated from the proportion of released TNF α amount of the compound addition group relative to that of the compound non-addition group.

[3] = Solubility in saline (0.9% aqueous sodium chloride solution) at 25° C.; assay type: physicochemical; conditions: saline or isotonic
Description: The solubility of the Example compounds of the present invention in saline (0.9% aqueous sodium chloride solution) at 25° C. was measured.

pIC50 [1]: 5.86
pIC50 [2]: 6.18
solubility [3]: > 20 mg/mL
SMILES: CC(C)C[C@@H](C(=O)N[C@@H](Cc1ccc(OS(=O)(=O)[O-])cc1)C(=O)c1ccco1)C(CN1C(=O)c2ccccc2C1=O)C(=O)NO.[Na+] (single isomer, unassigned) [Example 6, Sodium Salt of 3(R)-[1(S)-(2-furyl)carbonyl-2-[4-(hydroxysulfonyloxy)phenyl]]ethylcarbamoyl-5-methyl-2(R or S)-phthalimidomethylhexanohydroxamic Acid]

Reference: patent US6610729B1, “Hydroxamic acid derivatives and medicinal utilization thereof” (Mitsubishi Pharma Corporation, priority 1998, dated 2003)
